From the supplement of paper PMC10307832

Tests used:
Experiment in all cases: relative viability (nuclei count vs DMSO), 5 days (fraction); higher = more cells survive
TGX 221 + Navitoclax = compound: CC1=CN2C(=O)C=C(N=C2C(=C1)C(C)NC3=CC=CC=C3)N4CCOCC4 [TGX 221] + CC1(C)CCC(c2ccc(Cl)cc2)=C(CN2CCN(c3ccc(C(=O)NS(=O)(=O)c4ccc(N[C@H](CCN5CCOCC5)CSc5ccccc5)c(S(=O)(=O)C(F)(F)F)c4)cc3)CC2)C1 [Navitoclax] (partner 0.5 µM)
Summary of the method: (§1)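 The day after seeding in 1536-well plates, lung cancer cell lines were treated by pin tool with a single drug, or with a fixed anchor-drug dose together with five library-drug doses (not always all listed) in √10 steps. After 5 days, a combined fix-and-stain solution (final 0.05% Triton X-100, 1% formaldehyde, 1 ug/ml Hoechst) was added. Nuclei counted on 4× images gave relative viability as treated counts over vehicle counts, reported as the median of duplicate plates.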

[1] = compound: O=C(CCCCCCNC(=O)c1cnc(N(c2ccccc2)c2ccccc2)nc1)NO [Ricolinostat] + CC(=O)c1c(C)c2cnc(Nc3ccc(N4CCNCC4)cn3)nc2n(C2CCCC2)c1=O [Palbociclib] (partner 0.5 µM)
Summary of the method: as §1

[2] = compound: O=C(CCCCCCNC(=O)c1cnc(N(c2ccccc2)c2ccccc2)nc1)NO [Ricolinostat] + CCNC(=O)c1noc(-c2cc(C(C)C)c(O)cc2O)c1-c1ccc(CN2CCOCC2)cc1 [Luminespib] (partner 0.01 µM)
Summary of the method: as §1

Ricolinostat + Lapatinib = compound: O=C(CCCCCCNC(=O)c1cnc(N(c2ccccc2)c2ccccc2)nc1)NO [Ricolinostat] + CS(=O)(=O)CCNCc1ccc(-c2ccc3ncnc(Nc4ccc(OCc5cccc(F)c5)c(Cl)c4)c3c2)o1 [Lapatinib] (partner 2 µM)
Summary of the method: as §1

Cell Line | relative viability (TGX 221 + Navitoclax; first compound 0.08 µM) | relative viability (TGX 221 + Navitoclax; first compound 0.253 µM) | relative viability (TGX 221 + Navitoclax; first compound 0.8 µM) | relative viability (TGX 221 + Navitoclax; first compound 2.53 µM) | relative viability (TGX 221 + Navitoclax; first compound 8 µM) | relative viability ([1]; first compound 0.08 µM) | relative viability ([1]; first compound 0.253 µM) | relative viability ([1]; first compound 0.8 µM) | relative viability ([1]; first compound 2.53 µM) | relative viability ([2]; first compound 0.08 µM) | relative viability ([2]; first compound 0.253 µM) | relative viability ([2]; first compound 0.8 µM) | relative viability ([2]; first compound 2.53 µM) | relative viability (Ricolinostat + Lapatinib; first compound 0.08 µM) | relative viability (Ricolinostat + Lapatinib; first compound 0.253 µM) | relative viability (Ricolinostat + Lapatinib; first compound 0.8 µM) | relative viability (Ricolinostat + Lapatinib; first compound 2.53 µM)
LCLC-97TM1 | 0.389 | 0.264 | 0.42 | 0.464 | 0.481 | 0.198 | 0.202 | 0.232 | 0.212 | 0.651 | 0.752 | 0.565 | 0.561 | 0.658 | 1.09 | 0.87 | 1.15
NCI-H1734 | 0.809 | 0.747 | 0.784 | 0.698 | 0.765 | 0.343 | 0.35 | 0.4 | 0.389 | 0.197 | 0.19 | 0.185 | 0.178 | 1 | 1.05 | 1.02 | 0.891
NCI-H661 | – | – | – | – | – | 0.426 | 0.381 | 0.415 | 0.364 | 0.743 | 0.886 | 0.881 | 0.685 | – | 0.544 | 0.542 | 0.72
SK-LU-1 | 0.392 | 0.84 | 0.726 | 0.786 | 0.772 | 0.4 | 0.377 | 0.377 | 0.366 | 0.199 | 0.204 | 0.212 | 0.223 | 0.75 | 0.782 | 0.854 | 0.653
LC-2-ad | 0.514 | – | 0.424 | 0.348 | 0.361 | 0.52 | 0.418 | 0.465 | 0.488 | 0.8 | 0.987 | 0.98 | 0.869 | 0.883 | 0.943 | 0.98 | 0.678
NCI-H1355 | 0.88 | 0.747 | 0.764 | 0.598 | 0.707 | 0.373 | 0.367 | 0.31 | 0.402 | 0.645 | 0.764 | 0.753 | 0.712 | – | 1.01 | 1 | 0.863
NCI-H1793 | 0.405 | 0.328 | 0.286 | 0.283 | 0.176 | 0.306 | 0.31 | 0.281 | 0.329 | – | 0.15 | 0.171 | 0.145 | – | 0.739 | 0.61 | 0.895
H3255 | 0.486 | 0.49 | 0.515 | 0.553 | 0.601 | 0.336 | 0.307 | 0.292 | 0.33 | 0.534 | 0.881 | 0.833 | 0.704 | 0.189 | 0.3 | 0.2 | 0.207
NCI-H2342 | – | – | – | – | – | 0.555 | 0.473 | 0.509 | 0.577 | 0.541 | 0.78 | 0.835 | 0.762 | – | – | – | –
NCI-H838 | 1.08 | 0.977 | 1.05 | 0.888 | 0.779 | 0.202 | 0.262 | 0.182 | 0.235 | 0.254 | 0.291 | 0.289 | 0.169 | 0.683 | 1.08 | 0.955 | 0.873
NCI-H727 | 0.383 | 0.317 | 0.491 | 0.332 | 0.365 | 0.645 | 0.627 | 0.705 | 0.683 | 0.314 | 0.283 | 0.236 | 0.379 | 0.523 | 1.02 | 0.862 | 0.77
UMC-11 | 0.352 | 0.304 | 0.337 | 0.283 | 0.259 | 0.368 | 0.338 | 0.339 | 0.295 | 0.985 | 1.02 | 0.964 | 0.684 | 0.699 | 0.944 | 0.906 | 0.314
CAL-12T | 1.06 | 1.2 | 1.36 | 1.23 | 1.07 | 0.443 | 0.464 | 0.413 | 0.43 | 0.497 | 0.378 | 0.542 | 0.303 | 0.326 | 0.751 | 0.628 | 0.668
NCI-H1755 | 0.948 | 0.949 | 0.891 | 0.606 | 0.444 | 0.463 | 0.458 | 0.493 | 0.453 | 0.489 | 0.528 | 0.442 | 0.752 | 0.812 | – | 1.02 | 1.01
NCI-H1651 | 0.977 | 0.964 | 0.948 | 0.734 | 0.733 | 0.499 | 0.512 | 0.512 | 0.542 | 0.712 | 0.891 | 0.852 | 0.914 | 0.6 | 0.702 | 0.731 | 0.636
NCI-H2170 | 0.572 | 0.64 | 0.594 | 0.541 | 0.51 | 0.388 | 0.405 | 0.385 | 0.354 | 0.616 | 0.717 | 0.661 | 0.953 | 0.23 | 0.277 | 0.28 | 0.264
NCI-H1915 | 0.788 | 0.765 | 0.779 | 0.79 | 0.775 | 0.488 | 0.521 | 0.474 | 0.419 | 0.71 | 0.79 | 0.784 | 0.669 | 0.965 | 0.958 | 0.858 | 0.965
EPLC-272H | 1.1 | 1.17 | 1.19 | – | 1.29 | – | 0.325 | 0.332 | 0.237 | 0.159 | 0.266 | 0.292 | 0.161 | – | 0.978 | 1.03 | 0.884
NCI-H2087 | 0.989 | 0.898 | 1.06 | 0.945 | 0.952 | 0.263 | 0.165 | 0.178 | 0.0962 | – | 0.205 | 0.15 | 0.159 | 1.07 | 1.05 | 0.921 | 0.698
A-427 | 1.05 | 0.976 | 0.949 | 0.935 | 0.803 | 0.503 | 0.531 | 0.474 | 0.457 | – | 0.81 | 0.605 | 0.698 | 0.892 | 1.01 | 0.897 | 1.02
